In ChEMBL document CHEMBL1201862, “PubChem BioAssay data set” (2004):
Activity calls are given as the source filed them.

Assays:
[1] = target: T1, Small ubiquitin-related modifier 1 (Homo sapiens, UniProt P63165); experiment: SUMO1 protein interaction blockers, potency – biochemical, fluorescence polarization, uHTS hits, dose response (AID 624382); format: functional; conditions: read-out: IC50_Mean
[2] = target: T2, Dual specificity protein phosphatase 6 (Rattus norvegicus, UniProt Q64346); format: functional;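 further: confirmatory in vitro dose-response testing of MKP-3 inhibition; recombinant His-tagged MKP-3 made in E. coli BL21 with OMFP substrate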
T2 sequence (Q64346 whole entry): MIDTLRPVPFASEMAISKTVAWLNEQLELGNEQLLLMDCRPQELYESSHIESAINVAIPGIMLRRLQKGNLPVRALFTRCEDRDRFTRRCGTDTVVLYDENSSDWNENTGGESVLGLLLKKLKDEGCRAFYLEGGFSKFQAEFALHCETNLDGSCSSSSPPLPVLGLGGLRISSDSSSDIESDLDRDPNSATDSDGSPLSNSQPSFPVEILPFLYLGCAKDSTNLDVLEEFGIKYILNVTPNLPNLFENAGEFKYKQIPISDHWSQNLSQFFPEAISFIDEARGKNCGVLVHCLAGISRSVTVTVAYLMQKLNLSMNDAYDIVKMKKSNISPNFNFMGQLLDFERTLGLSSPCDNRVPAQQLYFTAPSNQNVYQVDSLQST

[3] = target: T1, Small ubiquitin-related modifier 1; experiment: SUMO1 protein-protein binding blockers, potency – biochemical, FRET, dose response (AID 624383); format: functional; conditions: read-out: IC50_Mean
[4] = target: Tyrosine-protein phosphatase non-receptor type 12 (Homo sapiens, UniProt Q05209); experiment: SAR Selectivity Analysis of small molecule inhibitors of PEST using pCAP in a fluorescence assay. [Related pubchem assays (depositor defined):AID1779, AID1784, AID2135]; format: functional
Chain of Tyrosine-protein phosphatase non-receptor type 12 (Q05209 whole entry): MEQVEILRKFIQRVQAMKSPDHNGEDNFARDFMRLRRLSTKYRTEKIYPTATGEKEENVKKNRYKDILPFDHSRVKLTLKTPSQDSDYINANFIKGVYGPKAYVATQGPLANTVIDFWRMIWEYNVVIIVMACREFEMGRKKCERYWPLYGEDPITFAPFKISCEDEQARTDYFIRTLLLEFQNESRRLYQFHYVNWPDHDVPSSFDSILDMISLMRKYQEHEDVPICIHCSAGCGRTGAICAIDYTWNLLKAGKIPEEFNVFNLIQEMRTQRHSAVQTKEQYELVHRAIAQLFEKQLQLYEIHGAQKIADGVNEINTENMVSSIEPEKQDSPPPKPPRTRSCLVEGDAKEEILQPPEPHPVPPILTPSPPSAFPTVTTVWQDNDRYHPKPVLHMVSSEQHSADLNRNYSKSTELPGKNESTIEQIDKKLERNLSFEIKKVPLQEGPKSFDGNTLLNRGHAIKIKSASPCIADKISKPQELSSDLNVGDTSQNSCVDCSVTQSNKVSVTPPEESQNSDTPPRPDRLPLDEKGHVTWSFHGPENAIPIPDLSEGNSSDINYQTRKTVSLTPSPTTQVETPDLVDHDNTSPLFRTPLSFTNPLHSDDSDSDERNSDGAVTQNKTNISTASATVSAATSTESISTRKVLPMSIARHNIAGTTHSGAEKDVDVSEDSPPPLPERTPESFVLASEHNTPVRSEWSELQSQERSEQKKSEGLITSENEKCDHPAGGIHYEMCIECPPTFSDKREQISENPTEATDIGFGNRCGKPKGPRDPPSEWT

[5] = target: DNA (cytosine-5)-methyltransferase 1 (Homo sapiens, UniProt P26358); experiment: inhibition of DNA methylation by DNMT1 – biochemical, fluorescent molecular beacon, confirmation (AID 602386); format: functional
[6] = target: T3, Tyrosine-protein phosphatase non-receptor type 7 (Homo sapiens, UniProt P35236); experiment: inhibition of hematopoietic tyrosine phosphatase HePTP – biochemical, set 2, SAR follow-up (AID 449736); format: functional
T3 sequence (P35236 whole entry): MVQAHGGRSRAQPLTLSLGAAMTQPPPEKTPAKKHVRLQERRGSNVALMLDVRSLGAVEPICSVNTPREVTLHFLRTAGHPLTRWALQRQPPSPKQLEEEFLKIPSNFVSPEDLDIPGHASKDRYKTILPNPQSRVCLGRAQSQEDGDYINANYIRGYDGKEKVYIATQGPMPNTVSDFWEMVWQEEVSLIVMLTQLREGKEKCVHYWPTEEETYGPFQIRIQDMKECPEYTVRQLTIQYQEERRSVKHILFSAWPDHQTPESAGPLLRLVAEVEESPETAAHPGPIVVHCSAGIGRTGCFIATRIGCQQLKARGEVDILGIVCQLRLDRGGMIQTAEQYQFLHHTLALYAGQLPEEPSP

[7] = target: T3, Tyrosine-protein phosphatase non-receptor type 7; experiment: redox-active compounds inhibiting HePTP phosphatase – biochemical, fluorescence, mechanism study (AID 2068); format: functional
[8] = target: T4, Dual specificity protein phosphatase 3 (Homo sapiens, UniProt P51452); experiment: SAR VHR1 Fluorescent Assay for In Vitro dose response studies. [Related pubchem assays (depositor defined):AID1654, AID1661, AID1878, AID1992, AID2004, AID2070, AID2085]; format: functional
T4 sequence (P51452 whole entry, the tested form may be a part): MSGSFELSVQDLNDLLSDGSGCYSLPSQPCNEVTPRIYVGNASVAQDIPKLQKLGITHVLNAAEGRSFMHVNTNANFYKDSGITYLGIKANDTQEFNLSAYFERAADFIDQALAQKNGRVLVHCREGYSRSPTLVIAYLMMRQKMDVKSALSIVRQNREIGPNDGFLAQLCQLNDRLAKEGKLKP

[9] = target: T5, Tyrosine-protein phosphatase non-receptor type 22 (Homo sapiens, UniProt Q9Y2R2); experiment: PTPN22 enzyme inhibitors – biochemical, fluorescence, LYP catalytic domain, selectivity assay for LMPTP inhibitor project, dose response (AID 652006); format: functional; conditions: read-out: IC50_Mean
T5 sequence (Q9Y2R2 whole entry): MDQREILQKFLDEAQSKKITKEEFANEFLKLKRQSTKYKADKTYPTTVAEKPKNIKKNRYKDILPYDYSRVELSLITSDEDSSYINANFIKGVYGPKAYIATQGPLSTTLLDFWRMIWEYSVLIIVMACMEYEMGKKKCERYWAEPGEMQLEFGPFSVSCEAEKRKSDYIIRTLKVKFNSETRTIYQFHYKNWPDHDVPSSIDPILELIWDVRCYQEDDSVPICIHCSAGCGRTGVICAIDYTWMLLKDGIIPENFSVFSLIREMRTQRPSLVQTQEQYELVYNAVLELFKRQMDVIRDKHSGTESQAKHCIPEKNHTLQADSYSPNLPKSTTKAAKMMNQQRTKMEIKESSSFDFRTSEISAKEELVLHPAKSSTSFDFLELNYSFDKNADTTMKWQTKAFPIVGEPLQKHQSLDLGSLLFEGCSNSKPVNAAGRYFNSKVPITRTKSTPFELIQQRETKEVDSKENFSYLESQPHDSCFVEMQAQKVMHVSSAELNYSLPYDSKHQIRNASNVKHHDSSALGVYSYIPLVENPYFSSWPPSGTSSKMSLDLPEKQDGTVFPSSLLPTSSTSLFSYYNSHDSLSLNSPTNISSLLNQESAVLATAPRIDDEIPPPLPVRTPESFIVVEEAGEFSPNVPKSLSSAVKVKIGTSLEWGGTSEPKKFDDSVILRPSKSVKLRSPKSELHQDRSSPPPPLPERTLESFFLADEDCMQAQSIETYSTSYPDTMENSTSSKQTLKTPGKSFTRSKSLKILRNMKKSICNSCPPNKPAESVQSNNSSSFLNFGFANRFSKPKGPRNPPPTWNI

[10] = target: T4, Dual specificity protein phosphatase 3; experiment: SAR VHR1 absorbance Assay for In Vitro dose response studies. [Related pubchem assays (depositor defined):AID1654, AID1661, AID1878, AID1992, AID2004]
[11] = target: T6, Low molecular weight phosphotyrosine protein phosphatase (Homo sapiens, UniProt P24666); format: functional; conditions: read-out: IC50_Mean;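 further: Dose-response confirmation assay measuring inhibition of LMPTP enzyme activity by fluorescence intensity read-out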
T6 sequence (P24666 whole entry): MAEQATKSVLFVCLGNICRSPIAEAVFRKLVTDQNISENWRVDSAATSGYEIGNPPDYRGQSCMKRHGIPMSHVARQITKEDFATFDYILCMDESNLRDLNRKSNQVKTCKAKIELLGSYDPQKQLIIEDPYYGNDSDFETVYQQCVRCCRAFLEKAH

[12] = target: T5, Tyrosine-protein phosphatase non-receptor type 22; experiment: inhibition of lymphoid tyrosine phosphatase LYP – biochemical, pCAP fluorogenic substrate, fluorescence, set 3, SAR follow-up (AID 449727); format: functional
[13] = target: T5, Tyrosine-protein phosphatase non-receptor type 22; experiment: SAR LYP1 Fluorescent Assay using OMFP substrate for In Vitro dose response studies - Set 3. [Related pubchem assays (depositor defined):AID1779, AID1784, AID2140, AID2686]; format: functional
[14] = target: T4, Dual specificity protein phosphatase 3; experiment: MOA VHR1 Fluorescent secondary assay for identification of redox-state modulating compounds. [Related pubchem assays (depositor defined):AID1654, AID1661, AID1878, AID1957]
[15] = target: Protein-arginine deiminase type-4 (Homo sapiens, UniProt Q9UM07); experiment: IC50 against protein arginine deiminase 4 – biochemical, fluorescence readout, dose response (AID 492970)
Chain of Protein-arginine deiminase type-4 (Q9UM07 whole entry): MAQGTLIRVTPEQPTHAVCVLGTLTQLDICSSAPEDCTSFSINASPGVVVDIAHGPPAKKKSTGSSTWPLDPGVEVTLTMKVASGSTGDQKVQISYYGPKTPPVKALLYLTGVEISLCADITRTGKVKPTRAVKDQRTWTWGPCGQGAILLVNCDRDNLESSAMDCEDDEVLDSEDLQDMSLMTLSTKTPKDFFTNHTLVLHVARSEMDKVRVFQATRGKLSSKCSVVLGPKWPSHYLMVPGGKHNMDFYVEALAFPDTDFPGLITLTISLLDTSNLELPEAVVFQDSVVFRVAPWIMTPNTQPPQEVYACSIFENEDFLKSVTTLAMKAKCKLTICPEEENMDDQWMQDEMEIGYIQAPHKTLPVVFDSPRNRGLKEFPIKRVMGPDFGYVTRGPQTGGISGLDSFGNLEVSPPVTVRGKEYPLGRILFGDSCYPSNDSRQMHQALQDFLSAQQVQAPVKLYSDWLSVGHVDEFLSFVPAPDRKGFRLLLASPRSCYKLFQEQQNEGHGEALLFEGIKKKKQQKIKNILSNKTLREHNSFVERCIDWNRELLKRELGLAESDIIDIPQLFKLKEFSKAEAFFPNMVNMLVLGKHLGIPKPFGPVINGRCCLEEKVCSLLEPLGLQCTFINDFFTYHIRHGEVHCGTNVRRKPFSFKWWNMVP

NADPH oxidase 2 = NADPH oxidase 2 (Homo sapiens, UniProt P04839); experiment: PubChem AID 435013
Chain of NADPH oxidase 2 (P04839 whole entry): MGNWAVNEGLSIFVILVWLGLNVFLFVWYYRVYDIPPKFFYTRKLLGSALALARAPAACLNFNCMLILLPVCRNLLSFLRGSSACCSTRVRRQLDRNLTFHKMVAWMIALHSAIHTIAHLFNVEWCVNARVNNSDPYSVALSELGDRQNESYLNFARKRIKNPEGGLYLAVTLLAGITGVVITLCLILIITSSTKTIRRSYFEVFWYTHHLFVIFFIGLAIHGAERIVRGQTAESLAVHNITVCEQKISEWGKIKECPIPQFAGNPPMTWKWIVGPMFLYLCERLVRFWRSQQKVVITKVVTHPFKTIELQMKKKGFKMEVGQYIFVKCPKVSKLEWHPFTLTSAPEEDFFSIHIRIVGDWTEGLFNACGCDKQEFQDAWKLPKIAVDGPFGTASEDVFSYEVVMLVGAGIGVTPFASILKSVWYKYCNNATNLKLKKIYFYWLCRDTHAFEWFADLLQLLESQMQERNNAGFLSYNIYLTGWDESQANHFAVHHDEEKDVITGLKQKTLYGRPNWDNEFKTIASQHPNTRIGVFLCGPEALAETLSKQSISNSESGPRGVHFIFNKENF

NADPH oxidase 1 [16] = target: T7, NADPH oxidase 1 (Homo sapiens, UniProt Q9Y5S8); experiment: HEK293 ROS counter-screen potency – cell-based, IC50, set 2, counter-screen for NOX1 inhibitor project, late-stage follow-up (AID 435002); format: functional
T7 sequence (Q9Y5S8 whole entry): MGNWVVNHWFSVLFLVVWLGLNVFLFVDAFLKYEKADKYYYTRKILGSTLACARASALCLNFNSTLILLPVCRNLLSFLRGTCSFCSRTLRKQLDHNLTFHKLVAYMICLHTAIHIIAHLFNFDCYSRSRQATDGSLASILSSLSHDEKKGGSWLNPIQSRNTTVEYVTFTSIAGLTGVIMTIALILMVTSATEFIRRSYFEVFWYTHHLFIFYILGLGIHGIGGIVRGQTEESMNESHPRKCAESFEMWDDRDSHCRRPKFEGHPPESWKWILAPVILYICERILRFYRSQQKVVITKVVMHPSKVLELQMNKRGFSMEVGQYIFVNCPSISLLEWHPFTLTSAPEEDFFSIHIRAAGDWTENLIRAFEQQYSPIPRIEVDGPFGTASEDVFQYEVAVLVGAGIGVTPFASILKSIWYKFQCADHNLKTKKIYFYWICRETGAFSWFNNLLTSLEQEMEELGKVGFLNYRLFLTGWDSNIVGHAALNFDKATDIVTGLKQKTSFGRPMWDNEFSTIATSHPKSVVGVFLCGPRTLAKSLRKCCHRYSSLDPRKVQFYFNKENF

NADPH oxidase 4 = NADPH oxidase 4 (Homo sapiens, UniProt Q9NPH5); experiment: PubChem AID 435013
Chain of NADPH oxidase 4 (Q9NPH5 whole entry): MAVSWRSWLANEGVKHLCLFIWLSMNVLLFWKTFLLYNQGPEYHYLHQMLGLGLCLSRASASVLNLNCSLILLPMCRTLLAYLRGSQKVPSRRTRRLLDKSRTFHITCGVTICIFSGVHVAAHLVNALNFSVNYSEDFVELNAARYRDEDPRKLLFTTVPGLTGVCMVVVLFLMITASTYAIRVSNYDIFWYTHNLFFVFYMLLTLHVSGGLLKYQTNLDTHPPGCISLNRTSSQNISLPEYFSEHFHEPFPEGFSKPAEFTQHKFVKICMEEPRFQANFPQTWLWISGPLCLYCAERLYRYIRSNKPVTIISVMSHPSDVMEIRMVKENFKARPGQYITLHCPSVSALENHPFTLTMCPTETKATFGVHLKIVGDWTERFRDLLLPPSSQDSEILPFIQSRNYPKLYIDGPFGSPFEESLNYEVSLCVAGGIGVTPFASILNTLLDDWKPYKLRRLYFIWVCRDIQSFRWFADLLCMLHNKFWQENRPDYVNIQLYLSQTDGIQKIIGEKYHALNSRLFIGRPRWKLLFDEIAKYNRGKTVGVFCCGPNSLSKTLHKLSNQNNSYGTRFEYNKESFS

NADPH oxidase 3 = NADPH oxidase 3 (Homo sapiens, UniProt Q9HBY0); experiment: PubChem AID 435013
Chain of NADPH oxidase 3 (Q9HBY0 whole entry): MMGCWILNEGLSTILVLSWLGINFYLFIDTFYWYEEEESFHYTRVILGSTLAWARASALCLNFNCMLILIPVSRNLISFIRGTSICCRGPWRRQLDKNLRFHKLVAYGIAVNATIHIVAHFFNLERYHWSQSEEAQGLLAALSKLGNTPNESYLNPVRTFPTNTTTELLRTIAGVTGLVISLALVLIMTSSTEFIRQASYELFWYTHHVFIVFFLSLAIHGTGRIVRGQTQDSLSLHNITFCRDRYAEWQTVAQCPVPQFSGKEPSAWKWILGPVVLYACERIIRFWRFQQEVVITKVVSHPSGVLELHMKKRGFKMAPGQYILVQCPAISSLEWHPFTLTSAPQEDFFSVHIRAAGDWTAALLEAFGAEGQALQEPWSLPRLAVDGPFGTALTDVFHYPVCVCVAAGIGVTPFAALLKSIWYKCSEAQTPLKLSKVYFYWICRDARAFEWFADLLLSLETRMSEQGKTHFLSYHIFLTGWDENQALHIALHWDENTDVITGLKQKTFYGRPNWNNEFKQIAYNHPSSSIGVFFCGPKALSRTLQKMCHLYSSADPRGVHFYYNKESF

NADPH oxidase 1 [17] = target: T7, NADPH oxidase 1; experiment: potency of NOX1 inhibition in cells – cell-based, luminescence, cherry picks 2, dose response (AID 434997); format: functional
[18] = A cytotoxicity screen of small molecule inhibitors of the PhoP region in Salmonella typhi identified in the primary screen. [Related pubchem assays: 1850, 1864, 1985 ]; format: functional
Hexokinase-1 = Hexokinase-1 (Homo sapiens, UniProt P19367); experiment: HK1 enzyme activation by HKDC1 hits – biochemical, selectivity assay for HKDC1 activator project, dose response (AID 504762); format: functional
Chain of Hexokinase-1 (P19367 whole entry): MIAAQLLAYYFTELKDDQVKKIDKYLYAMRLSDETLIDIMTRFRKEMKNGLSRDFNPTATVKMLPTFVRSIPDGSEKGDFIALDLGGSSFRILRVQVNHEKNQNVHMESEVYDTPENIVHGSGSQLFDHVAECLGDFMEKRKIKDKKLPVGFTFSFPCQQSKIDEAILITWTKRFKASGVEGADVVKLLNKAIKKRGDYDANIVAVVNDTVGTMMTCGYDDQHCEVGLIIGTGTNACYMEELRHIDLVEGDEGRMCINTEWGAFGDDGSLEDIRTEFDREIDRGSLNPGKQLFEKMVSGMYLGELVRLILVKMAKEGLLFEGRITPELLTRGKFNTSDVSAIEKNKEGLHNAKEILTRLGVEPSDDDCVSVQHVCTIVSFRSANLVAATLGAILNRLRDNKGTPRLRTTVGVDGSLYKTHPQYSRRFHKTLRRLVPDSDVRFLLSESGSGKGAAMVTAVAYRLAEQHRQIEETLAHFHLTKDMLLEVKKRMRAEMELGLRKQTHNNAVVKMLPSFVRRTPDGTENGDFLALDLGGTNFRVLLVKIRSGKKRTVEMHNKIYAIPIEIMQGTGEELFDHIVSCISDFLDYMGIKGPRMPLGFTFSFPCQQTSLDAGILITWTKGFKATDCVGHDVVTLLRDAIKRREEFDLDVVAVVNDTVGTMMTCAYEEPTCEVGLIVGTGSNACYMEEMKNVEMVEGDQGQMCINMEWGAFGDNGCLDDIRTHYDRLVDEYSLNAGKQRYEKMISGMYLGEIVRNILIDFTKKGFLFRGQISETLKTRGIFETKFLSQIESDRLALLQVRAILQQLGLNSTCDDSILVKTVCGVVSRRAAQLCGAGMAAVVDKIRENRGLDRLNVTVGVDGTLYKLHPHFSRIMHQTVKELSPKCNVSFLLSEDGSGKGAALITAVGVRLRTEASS

Hexokinase HKDC1 = target: T8, Hexokinase HKDC1 (Homo sapiens, UniProt Q2TB90); experiment: activation of HKDC1 glucose phosphorylation – biochemical, W721R variant, dose response (AID 504730); format: functional
T8 sequence (Q2TB90 whole entry): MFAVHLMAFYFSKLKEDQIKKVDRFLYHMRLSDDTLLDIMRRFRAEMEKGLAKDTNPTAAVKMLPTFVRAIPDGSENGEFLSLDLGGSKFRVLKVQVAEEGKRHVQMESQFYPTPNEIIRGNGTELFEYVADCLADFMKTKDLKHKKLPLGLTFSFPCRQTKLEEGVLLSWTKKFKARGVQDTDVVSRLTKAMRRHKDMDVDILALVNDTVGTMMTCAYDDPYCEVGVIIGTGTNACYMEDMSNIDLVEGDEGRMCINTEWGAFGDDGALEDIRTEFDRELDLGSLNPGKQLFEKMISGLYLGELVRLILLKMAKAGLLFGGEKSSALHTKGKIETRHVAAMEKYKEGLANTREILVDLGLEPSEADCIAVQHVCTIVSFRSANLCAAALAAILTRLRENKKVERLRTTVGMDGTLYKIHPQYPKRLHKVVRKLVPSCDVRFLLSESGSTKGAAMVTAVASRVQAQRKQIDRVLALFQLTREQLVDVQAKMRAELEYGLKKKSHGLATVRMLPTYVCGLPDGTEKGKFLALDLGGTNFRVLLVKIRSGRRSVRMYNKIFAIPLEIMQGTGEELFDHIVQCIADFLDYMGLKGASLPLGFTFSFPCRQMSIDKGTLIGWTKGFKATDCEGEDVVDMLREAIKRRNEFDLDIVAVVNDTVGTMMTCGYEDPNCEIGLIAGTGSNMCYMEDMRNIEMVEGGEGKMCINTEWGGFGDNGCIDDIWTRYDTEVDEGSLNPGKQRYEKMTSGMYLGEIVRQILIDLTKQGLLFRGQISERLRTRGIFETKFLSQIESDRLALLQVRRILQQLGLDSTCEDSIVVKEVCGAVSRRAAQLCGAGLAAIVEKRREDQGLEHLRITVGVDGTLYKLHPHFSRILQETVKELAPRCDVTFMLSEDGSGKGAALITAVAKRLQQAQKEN

T1 sequence (P63165 whole entry): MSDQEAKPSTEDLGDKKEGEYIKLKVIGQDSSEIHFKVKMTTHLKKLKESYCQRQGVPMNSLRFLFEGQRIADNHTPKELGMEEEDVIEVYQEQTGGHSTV

CCOC(=O)C1=C(C)N=c2sc(=Cc3ccc(OCC(=O)O)cc3)c(=O)n2C1c1ccc(Cl)cc1 (stereo not drawn)
IC50 [1]: > 66.6 µM (inactive)
IC50 [2]: 41.4 µM (active)
IC50 [3]: 8.82 µM (active)
IC50 [4]: 2.41 µM (active)
IC50 [5]: 8.42 µM (active)
IC50 [6]: 0.419 µM (active)
IC50 [7]: 0.52 µM (active)
IC50 [8]: 3.2 µM (active)
IC50 [9]: 12 µM (active)
IC50 [10]: 4.23 µM (active)
IC50 [11]: 12.5 µM (active)
IC50 [12]: 2.74 µM (active)
IC50 [13]: 3.82 µM (active)
IC50 [14]: 2.08 µM (active)

CC(=O)c1cc([N+](=O)[O-])c(Sc2ccc(Cl)cc2)s1
IC50 [15]: 92 µM (inactive)

CN(C)c1ccc(/C=N/Nc2c(Cl)cncc2Cl)cc1
IC50 (NADPH oxidase 2): > 10 µM (inactive)
IC50 (NADPH oxidase 1 [16]): 4 µM (active)
IC50 (NADPH oxidase 4): 9 µM (active)
IC50 (NADPH oxidase 3): 20 µM (inactive)
IC50 (NADPH oxidase 1 [17]): 0.44 µM (active)

Nc1nc(N2CCN(c3ccccn3)CC2)nc2ccccc12
EC50 [18]: > 50 µM (active)
EC50 (Hexokinase-1): 32.2 µM (inactive)
EC50 (Hexokinase HKDC1): 25.4 µM (inactive)
